The values that follow come from publication PMC9207808 (ACS Chemical Biology, 2022).

SMILES strings stand for the structures. Residues, ends and D or L forms follow the SMILES beside them.

For assay [1], the system named is DocSTm. The assay is described as follows: Differential scanning fluorimetry (thermal stabilisation of Doc). It counts as binding, S. Typhimurium. The following applies: for melting temperature shift ΔTm: DSF, DocSTm 5 μM, analyte 50 μM, Tm with analyte minus Tm of free DocSTm (42.9 ± 0.9 °C), SYPRO Orange, 20 mM K2HPO4, 50 mM (NH4)2SO4, pH 8.0, triplicate; for Average Tm / Tm: DocSTm 5 µM + 50 µM binder; for Average Tm: average of 3 replicates. On the procedure:
Experiments were performed in a Mx3005P qPCR System (Agilent) collecting fluorescence data with a temperature ramp of 25 to 95 °C. Samples were prepared in a buffer containing 20 mM K2HPO4 and 50 mM (NH4)2SO4 at pH 8.0. The SYPRO Orange dye (Sigma-Aldrich, 5000× stock in DMSO) was used to monitor protein denaturation and was diluted to a final concentration of 3×. For binding experiments, the final concentration of Doc was 5 μM. Each condition was performed in triplicate (ESI section 4) and the melting curves were plotted using GraphPad Prism 5 (GraphPad Software, U.S.A.). The melting temperatures were obtained by fitting the sigmoidal section of the curves to a Boltzmann sigmoid function.
Background: DSF heats the sample and reads unfolding from a dye or from intrinsic fluorescence.

Assay [2] concerns the target DocSTm. Description: Surface plasmon resonance binding to immobilised Doc. The following applies: for koff × 10^-6 / kon × 10^6: 1:1 kinetic fit, mean ± SD of at least 3 replicates; for kon × 10^6: single-cycle kinetics (multicycle for PhdSTm1-73); for Half-life of the complex: t1/2 = ln2 / koff. Also noted: species or system S. Typhimurium. The protocol:
Experiments were performed in a Biacore S200 (Cytiva) with a Series S sensor chip NTA (Cytiva). The data was analyzed using the Biacore Evaluation Software (Cytiva) and curves were plotted using GraphPad Prism 5 (GraphPad Software, U.S.A.). All experiments were performed at 22 °C with a running buffer containing 10 mM HEPES, 500 mM NaCl, 50 μM EDTA, and 0.005% (v/v) TWEEN 20 at pH 8.0. The surface was conditioned following the standard manufacturer’s guidelines and protein immobilization was performed with a 30–60 s pulse (flow rate of 5 μL/min) of Doc (150 nM) in running buffer. […] Surface regeneration was performed with a 1 min pulse of 0.5 M imidazole followed by a 1 min pulse of 0.35 M of EDTA at pH 8.0.
Binding to Doc was performed using a multicycle kinetics (MCK) setup for peptides 7, 10, and 14, while the remaining samples were tested using a single-cycle kinetics (SCK) setup. The surface was fully regenerated in between each analyte in both cases. In the MCK experiments, increasing concentrations of each analyte were injected with an 80 s pulse (30 μL/min) and dissociation times varied depending on the time required to fully dissociate the complex. The double-referenced sensorgrams (raw data subtracted from a blank injection and reference surface responses) were analyzed using a kinetic and/or a steady-state 1:1 binding model. In the SCK experiments, typically six concentrations of each analyte were sequentially injected with 80 s pulses (30 μL/min), and dissociation times varied depending on the time required to dissociate at least 5% of the complex. The double-referenced sensorgrams were fitted using a kinetic 1:1 binding model.
At least three independent replicates were measured for each analyte (ESI section 5). When a steady-state fit was applied, the reported Kd and its uncertainty correspond, respectively, to the average and standard deviations of the Kd obtained in each measurement. When a kinetic fit was applied, the reported rate constants (kon and koff) and their uncertainties correspond, respectively, to the average and standard deviations of the rate constants obtained in each measurement. In this case, reported Kd were calculated using the equation below, and the standard deviation of the rate constants was propagated. [drawing 1]

[3] abbreviates: SPR, kinetic fit, KD calculated from mean koff and kon, SD propagated, 22 °C, pH 8.0.

Turning to `CC[C@H](C)[C@H](NC(=O)[C@H](C)NC(=O)[C@H](C)NC(=O)[C@H](Cc1ccccc1)NC(=O)[C@H](CCC(=O)O)NC(=O)[C@H](CC(=O)O)NC(=O)[C@H](CC(=O)O)NC(=O)[C@H](C)NC(=O)[C@H](Cc1c[nH]c2ccccc12)NC(C)=O)C(=O)N[C@@H](CCSC)C(=O)N[C@@H](C)C(=O)N[C@H](C(=O)N[C@@H](Cc1c[nH]cn1)C(=O)NCC(=O)N[C@@H](CC(N)=O)C(=O)N[C@@H](CCC(=O)O)C(=O)N[C@@H](CC(C)C)C(=O)N[C@@H](CCCNC(=N)N)C(=O)N[C@@H](CCC(=O)O)C(=O)N[C@@H](CC(C)C)C(=O)N[C@@H](C)C(=O)N[C@@H](CC(=O)O)C(=O)N[C@@H](CCCCN)C(=O)O)C(C)C` [peptide 2] (Ac-WADDEFAAIMAVHGNELRELADK-OH; C-terminus assumed), the “melting temperature shift ΔTm” value in the assay with DocSTm [1] is 28.0 ± 1.0 °C. Moreover, the “Average Tm” value with DocSTm [1] worked out at 70.9 ± 0.4 °C. The results for the Tm in the assay with DocSTm [1] (replicate 1), with DocSTm [1] (replicate 2) and in the assay on DocSTm [1] (replicate 3) were 71.3 °C, 70.8 °C and 70.6 °C, respectively. The Kd at DocSTm [2] (SPR kinetic fit, replicate 1) was 0.0523 nM; at DocSTm [2] (SPR kinetic fit, replicate 2), 0.0478 nM; at DocSTm [2] (SPR kinetic fit, replicate 3), 0.0551 nM; at DocSTm [2] (setting [3]), 0.052 ± 0.012 nM. In the assay on DocSTm [2] (SPR, 22 °C, pH 8.0), the “koff × 10^-6” value is recorded as 59 ± 11 ×10^-6 s-1. In addition, the “kon × 10^6” value with DocSTm [2] (SPR, 22 °C, pH 8.0) was 1.136 ± 0.140 ×10^6 M-1 s-1. Also, the “Half-life of the complex” value in the assay on DocSTm [2] worked out at 3.3 ± 0.6 h.
On to `CC[C@H](C)[C@H](NC(=O)[C@H](C)NC(=O)[C@H](C)NC(=O)[C@H](Cc1ccccc1)NC(=O)[C@H](C)NC(=O)[C@H](CC(=O)O)NC(=O)[C@H](CC(=O)O)NC(=O)[C@H](CCSC)NC(=O)[C@H](Cc1c[nH]c2ccccc12)NC(C)=O)C(=O)N[C@@H](CCSC)C(=O)N[C@@H](C)C(=O)N[C@H](C(=O)N[C@@H](Cc1c[nH]cn1)C(=O)NCC(=O)N[C@@H](CC(N)=O)C(=O)N[C@@H](CCC(=O)O)C(=O)N[C@@H](CC(C)C)C(=O)N[C@@H](CCCNC(=N)N)C(=O)N[C@@H](CCC(=O)O)C(=O)N[C@@H](CC(C)C)C(=O)N[C@@H](C)C(=O)N[C@@H](CC(=O)O)C(=O)N[C@@H](CCCCN)C(=O)O)C(C)C` [peptide 5] (Ac-WMDDAFAAIMAVHGNELRELADK-OH; C-terminus assumed), for which the “melting temperature shift ΔTm” value in the assay on DocSTm [1] stood at 23.4 ± 0.9 °C. Also, the “Average Tm” value with DocSTm [1] worked out at 66.3 ± 0.1 °C. Also, the figures for the Tm with DocSTm [1] (replicate 1), with DocSTm [1] (replicate 2) and in the assay on DocSTm [1] (replicate 3) were 66.3 °C, 66.3 °C and 66.2 °C, respectively. The dissociation constant (Kd) at DocSTm [2] (SPR kinetic fit, replicate 1) was 0.0489 nM; on DocSTm [2] (SPR kinetic fit, replicate 2) it was 0.0513 nM; on DocSTm [2] (SPR kinetic fit, replicate 3), 0.0469 nM; on DocSTm [2] (setting [3]), 0.049 ± 0.006 nM. Besides, the “koff × 10^-6” value in the assay with DocSTm [2] (SPR, 22 °C, pH 8.0) was 75 ± 5 ×10^-6 s-1. Besides, the “kon × 10^6” value in the assay on DocSTm [2] (SPR, 22 °C, pH 8.0) is recorded as 1.542 ± 0.147 ×10^6 M-1 s-1. Also, the “Half-life of the complex” value in the assay with DocSTm [2] is recorded as 2.6 ± 0.2 h.
As to `CC[C@H](C)[C@H](NC(=O)[C@H](C)NC(=O)[C@H](C)NC(=O)[C@H](Cc1ccccc1)NC(=O)[C@H](CCC(=O)O)NC(=O)[C@H](CC(=O)O)NC(=O)[C@H](CC(=O)O)NC(=O)[C@H](CCSC)NC(=O)[C@H](Cc1c[nH]c2ccccc12)NC(C)=O)C(=O)N[C@@H](CCSC)C(=O)N[C@@H](C)C(=O)N[C@@H](C)C(=O)N[C@@H](Cc1c[nH]cn1)C(=O)NCC(=O)N[C@@H](CC(N)=O)C(=O)N[C@@H](CCC(=O)O)C(=O)N[C@@H](CC(C)C)C(=O)N[C@@H](CCCNC(=N)N)C(=O)N[C@@H](CCC(=O)O)C(=O)N[C@@H](CC(C)C)C(=O)N[C@@H](C)C(=O)N[C@@H](CC(=O)O)C(=O)N[C@@H](CCCCN)C(=O)O` [peptide 9] (Ac-WMDDEFAAIMAAHGNELRELADK-OH; C-terminus assumed), in the assay on DocSTm [1], the “melting temperature shift ΔTm” value is 24.6 ± 1.2 °C. Moreover, the “Average Tm” value with DocSTm [1] stood at 67.5 ± 0.7 °C. The Tm worked out at 68.3 °C with DocSTm [1] (replicate 1), 67.4 °C in the assay on DocSTm [1] (replicate 2) and 66.9 °C in the assay on DocSTm [1] (replicate 3). Besides, the Kd at DocSTm [2] (SPR kinetic fit, replicate 1) was 0.183 nM; on DocSTm [2] (SPR kinetic fit, replicate 2), 0.239 nM; on DocSTm [2] (SPR kinetic fit, replicate 3), 0.132 nM; at DocSTm [2] (setting [3]), 0.171 ± 0.076 nM. The “koff × 10^-6” value in the assay with DocSTm [2] (SPR, 22 °C, pH 8.0) is 388 ± 57 ×10^-6 s-1. Besides, the “kon × 10^6” value in the assay on DocSTm [2] (SPR, 22 °C, pH 8.0) was 2.266 ± 0.942 ×10^6 M-1 s-1. For the same compound, the “Half-life of the complex” value with DocSTm [2] was determined as 0.50 ± 0.07 h.

For orientation: Kd means a measure of binding affinity in units of concentration.
